From patent US20110130357A1 (priority 2008, published 2011)
≈ marks a conversion by molar mass, not a printed value.

Columns and labels:
F. graminearum [1] = format: cell-based, Fusarium graminearum; conditions: for lethality to F. graminearum: in the range of 500 to 1 μg/mL
F. graminearum [2] = format: cell-based, Fusarium graminearum; conditions: PDB+casamino acids containing 0.02, 0.08 or 0.2% (v/v) surfactant
[3] = test system: F. graminearum isolate B-4-5A; format: in vivo, Fusarium graminearum on wheat (Alsen and Frontana cultivars); conditions: 30 μg/mL aminoglycoside mixed in inoculum, wheat leaves
screened fungi = assay: MIC against screened fungi (all species); format: cell-based
[4] = test system: Escherichia coli TG1 (pET28a); format: cell-based; conditions: 35° C., 12-18 hrs
[5] = test system: Staphylococcus aureus ATCC 25923; format: cell-based; conditions: 35° C., 12-18 hrs
[6] = test system: Pseudomonas aeruginosa (ATCC 27853); format: cell-based; conditions: 35° C., 12-18 hrs
[7] = test system: Enterococcus faecalis (ATCC29212); format: cell-based; conditions: 35° C., 12-18 hrs
[8] = test system: Klebsiella pneumoniae (ATCC 138883); format: cell-based; conditions: 35° C., 12-18 hrs
wheat seedlings = conditions: in vivo
Ulocladium sp. = assay: MIC against screened fungi
Fusarium oxysporium = assay: MIC against screened fungi
[9] = test system: selected bacterial pathogens; assay: Antibacterial MIC over the selected bacterial pathogens; format: cell-based; conditions: read-out: Corresponding MIC values (span over the tested bacteria)
Method: The minimum inhibitory concentration of M038 was determined for selected bacterial pathogens. For purposes of the experiments discussed in this paragraph, the minimum inhibitory concentration (MIC) is defined as the minimum concentration of compound needed to inhibit the growth of bacteria. A solution of selected bacteria was inoculated Trypticase Soy broth at 35° C. and incubated for 1-2 hours. Following incubation, the bacterial concentrations were determined, and diluted with broth, if necessary, to an absorption value of 0.08 to 0.1 at 625 nm. The adjusted inoculated medium (100 μL) was diluted with 10 ml broth, and then applied to a 96-well microtiter plate (50 μL). A series of solutions (50 μL each in 2-fold dilution) of M038 was added to the testing wells. The 96-well plate was incubated at 35° C. for 12-18 hrs. The MIC results were repeated at least three times.

Row | SMILES | effect of surfactant on in vitro activity (MIC) (F. graminearum [2]) | lesion development / leaf infection by F. graminearum [3] | phytotoxicity (wheat seedlings) | phytotoxicity (relative chlorophyll content) (wheat seedlings) | lethality to F. graminearum (F. graminearum [1]) | other results
1 | CCCCCCCCO[C@H]1[C@H](O)[C@@H](O)[C@@H](O[C@@H]2[C@@H](O)[C@H](O[C@H]3O[C@H](CN)[C@@H](O)[C@H](O)[C@H]3N)[C@@H](N)C[C@H]2N)O[C@@H]1C [JL038, 6-O-(6-Deoxy-4-O-n-octyl-α-D-glucopyranosyl)neamine] | did not affect | prevents lesion development | no phytotoxicity | phytotoxic | – | MIC (MIC90, concentration required to inhibit 90% of the growth or more) (F. graminearum [1]; PDB+casamino acids, 24° C., 72 h, tested range 500 to 1 μg/mL): 31.3 µg/mL; MICs for all species of screened fungi (screened fungi; all screened fungi): ≤ 31.3 µg/mL; Minimal inhibitory concentration (MIC) [4]: 125-250 μ/mL; Minimal inhibitory concentration (MIC) [5]: 250 μ/mL; Minimal inhibitory concentration (MIC) [6]: 250 µg/mL (≈ 431 µM); Minimal inhibitory concentration (MIC) [7]: 125-250 μ/mL; Minimal inhibitory concentration (MIC) [8]: 250 μ/mL; chlorophyll damage (relative chlorophyll content) (wheat seedlings): no chlorophyll damages; phytotoxicity (chlorosis in the absence of fungal growth) (wheat seedlings): showed phytotoxicity; MIC (Ulocladium sp.): 7.8 µg/mL (≈ 13.4 µM); MIC (Fusarium oxysporium): 7.8 µg/mL (≈ 13.4 µM)
2 | NCC1O[C@H](OC2C(N)CC(N)[C@@H](OC3OCC(O)[C@@H](O)[C@H]3O)[C@H]2O)C(N)[C@@H](O)[C@@H]1O (stereo partly drawn) [JL39] | – | – | – | – | not lethal | –
3 | NCC1O[C@H](OC2C(N)CC(N)[C@@H](OC3OCC(O)[C@@H](N)[C@H]3O)[C@H]2O)C(N)[C@@H](O)[C@@H]1O (stereo partly drawn) [JL40, reference compound] | did not affect | did not prevent leaf infection | phytotoxic | phytotoxic | – | –
4 | NCC1O[C@H](OC2C(N)CC(N)[C@@H](OC3O[C@H](CO)C(O)[C@@H](N)[C@H]3O)[C@H]2O)C(O)[C@@H](O)[C@@H]1O (stereo partly drawn) [kanamycin A, Kanamycin A] | – | – | – | – | not lethal | –
5 | NC[C@H]1O[C@H](O[C@H]2[C@H](O)[C@@H](O[C@H]3O[C@H](CO)[C@@H](O)[C@H](N)[C@H]3O)[C@H](N)C[C@@H]2N)[C@H](N)[C@@H](O)[C@@H]1O [kanamycin B, Kanamycin B, reference compound] | did not affect | did not prevent leaf infection | phytotoxic | phytotoxic | – | antifungal effectiveness against screened fungi (screened fungi; screened fungi of Table 2): substantially ineffective; MIC [9]: 980 to 1950 µg/mL (≈ 2030 to 4030 µM)
